Measurements published in the NIST ThermoML archive (doi:10.1021/je200434a).

Conditions: 101.33 kPa, Liquid; for viscosity: Concentric cylinders viscometry; for mass density: Vibrating tube method

CCCCOS(=O)(=O)[O-].CC[n+]1ccn(C)c1 [3-ethyl-1-methylimidazolium butyl sulfate]
Conditions	mass density [kg/m3]	viscosity [mPa·s]
283.15 K	–	468.4
288.15 K	–	332.5
293.15 K	1179.68	242.3
294.15 K	1178.99	–
295.15 K	1178.3	–
296.15 K	1177.62	–
297.15 K	1176.93	–
298.15 K	1176.24	180.8
299.15 K	1175.55	–
300.15 K	1174.87	–
301.15 K	1174.19	–
302.15 K	1173.5	–
303.15 K	1172.82	137.9
304.15 K	1172.14	–
305.15 K	1171.46	–
306.15 K	1170.78	–
307.15 K	1170.11	–
308.15 K	1169.43	107.2
309.15 K	1168.75	–
310.15 K	1168.08	–
311.15 K	1167.41	–
312.15 K	1166.73	–
313.15 K	1166.06	84.8
314.15 K	1165.39	–
315.15 K	1164.73	–
316.15 K	1164.06	–
317.15 K	1163.39	–
318.15 K	1162.73	68.1
319.15 K	1162.06	–
320.15 K	1161.4	–
321.15 K	1160.74	–
322.15 K	1160.07	–
323.15 K	1159.41	55.6
324.15 K	1158.76	–
325.15 K	1158.1	–
326.15 K	1157.43	–
327.15 K	1156.78	–
328.15 K	1156.12	45.9
329.15 K	1155.47	–
330.15 K	1154.81	–
331.15 K	1154.16	–
332.15 K	1153.51	–
333.15 K	1152.85	38.4
334.15 K	1152.2	–
335.15 K	1151.55	–
336.15 K	1150.9	–
337.15 K	1150.25	–
338.15 K	1149.6	32.4
339.15 K	1148.95	–
340.15 K	1148.3	–
341.15 K	1147.65	–
342.15 K	1147.01	–
343.15 K	1146.37	27.7
344.15 K	1145.72	–
345.15 K	1145.07	–
346.15 K	1144.43	–
347.15 K	1143.78	–
348.15 K	1143.14	23.8
349.15 K	1142.5	–
350.15 K	1141.85	–
351.15 K	1141.21	–
352.15 K	1140.57	–
353.15 K	1139.93	20.7
354.15 K	1139.29	–
355.15 K	1138.65	–
356.15 K	1138.01	–
357.15 K	1137.37	–
358.15 K	1136.73	18.1
359.15 K	1136.09	–
360.15 K	1135.45	–
361.15 K	1134.82	–
362.15 K	1134.18	–
363.15 K	1133.54	16
368.15 K	–	14.2
373.15 K	–	12.6

CCn1cc[n+](C)c1.COS(=O)(=O)[O-] [1-ethyl-3-methylimidazolium methylsulfate]
Conditions	mass density [kg/m3]	viscosity [mPa·s]
283.15 K	–	169.5
288.15 K	–	128.6
293.15 K	1289.48	99.7
294.15 K	1288.8	–
295.15 K	1288.1	–
296.15 K	1287.41	–
297.15 K	1286.71	–
298.15 K	1286.02	78.8
299.15 K	1285.33	–
300.15 K	1284.64	–
301.15 K	1283.95	–
302.15 K	1283.26	–
303.15 K	1282.57	63.4
304.15 K	1281.89	–
305.15 K	1281.2	–
306.15 K	1280.52	–
307.15 K	1279.84	–
308.15 K	1279.15	51.8
309.15 K	1278.48	–
310.15 K	1277.8	–
311.15 K	1277.12	–
312.15 K	1276.44	–
313.15 K	1275.76	42.9
314.15 K	1275.09	–
315.15 K	1274.41	–
316.15 K	1273.74	–
317.15 K	1273.07	–
318.15 K	1272.4	35.9
319.15 K	1271.72	–
320.15 K	1271.05	–
321.15 K	1270.38	–
322.15 K	1269.71	–
323.15 K	1269.04	30.5
324.15 K	1268.37	–
325.15 K	1267.71	–
326.15 K	1267.04	–
327.15 K	1266.38	–
328.15 K	1265.71	26.1
329.15 K	1265.05	–
330.15 K	1264.39	–
331.15 K	1263.72	–
332.15 K	1263.06	–
333.15 K	1262.4	22.6
334.15 K	1261.74	–
335.15 K	1261.08	–
336.15 K	1260.42	–
337.15 K	1259.76	–
338.15 K	1259.1	19.7
339.15 K	1258.44	–
340.15 K	1257.78	–
341.15 K	1257.13	–
342.15 K	1256.47	–
343.15 K	1255.81	17.3
344.15 K	1255.15	–
345.15 K	1254.5	–
346.15 K	1253.84	–
347.15 K	1253.19	–
348.15 K	1252.54	15.3
349.15 K	1251.88	–
350.15 K	1251.23	–
351.15 K	1250.58	–
352.15 K	1249.93	–
353.15 K	1249.28	13.6
354.15 K	1248.63	–
355.15 K	1247.98	–
356.15 K	1247.33	–
357.15 K	1246.68	–
358.15 K	1246.03	12.2
359.15 K	1245.38	–
360.15 K	1244.74	–
361.15 K	1244.09	–
362.15 K	1243.44	–
363.15 K	1242.8	11
368.15 K	–	9.9
373.15 K	–	9

CCCCCCOS(=O)(=O)[O-].CC[n+]1ccn(C)c1 [3-ethyl-1-methyl-1H-imidazolium hexyl sulfate]
Conditions	mass density [kg/m3]	viscosity [mPa·s]
283.15 K	–	875
288.15 K	–	604
293.15 K	1133.8	428.3
294.15 K	1133.12	–
295.15 K	1132.45	–
296.15 K	1131.77	–
297.15 K	1131.09	–
298.15 K	1130.42	311.4
299.15 K	1129.74	–
300.15 K	1129.07	–
301.15 K	1128.4	–
302.15 K	1127.72	–
303.15 K	1127.05	231.5
304.15 K	1126.38	–
305.15 K	1125.71	–
306.15 K	1125.04	–
307.15 K	1124.37	–
308.15 K	1123.7	175.7
309.15 K	1123.03	–
310.15 K	1122.36	–
311.15 K	1121.7	–
312.15 K	1121.03	–
313.15 K	1120.37	135.9
314.15 K	1119.7	–
315.15 K	1119.04	–
316.15 K	1118.38	–
317.15 K	1117.72	–
318.15 K	1117.06	106.9
319.15 K	1116.4	–
320.15 K	1115.74	–
321.15 K	1115.08	–
322.15 K	1114.42	–
323.15 K	1113.77	85.4
324.15 K	1113.12	–
325.15 K	1112.46	–
326.15 K	1111.81	–
327.15 K	1111.16	–
328.15 K	1110.51	69.2
329.15 K	1109.86	–
330.15 K	1109.21	–
331.15 K	1108.56	–
332.15 K	1107.92	–
333.15 K	1107.27	56.8
334.15 K	1106.63	–
335.15 K	1105.98	–
336.15 K	1105.33	–
337.15 K	1104.69	–
338.15 K	1104.05	47.2
339.15 K	1103.41	–
340.15 K	1102.77	–
341.15 K	1102.13	–
342.15 K	1101.49	–
343.15 K	1100.85	39.6
344.15 K	1100.21	–
345.15 K	1099.57	–
346.15 K	1098.93	–
347.15 K	1098.3	–
348.15 K	1097.66	33.6
349.15 K	1097.02	–
350.15 K	1096.39	–
351.15 K	1095.75	–
352.15 K	1095.12	–
353.15 K	1094.49	28.8
354.15 K	1093.85	–
355.15 K	1093.22	–
356.15 K	1092.59	–
357.15 K	1091.95	–
358.15 K	1091.32	24.8
359.15 K	1090.69	–
360.15 K	1090.06	–
361.15 K	1089.43	–
362.15 K	1088.8	–
363.15 K	1088.17	21.6
368.15 K	–	18.9
373.15 K	–	16.7
